The test system of one assay is PUMA mRNA. The assay is described as follows: drug-induced PUMA mRNA expression in whole blood of healthy adults. The assay is classed as cell-based, human. The following applies: for kinetics of PUMA induction: heparinized whole blood, 0-8 hours at 37° C., 20 μM BLM, 100 μM VP-16 (FIG. 5). The method, then:
In 8-well strip microtubes, 1.4 μl of 50× concentrations of drugs or controls (phosphate buffered saline (PBS) or DMSO) were added, and stored at −20° C. until use. […] Seventy μl of fresh heparinized whole blood was added into each well in triplicate, and incubated at 37° C. for 2-8 hours with the cap closed. For radiation treatment, blood was stimulated at designated doses using cesium-137. After each treatment, 50 μl of whole blood was transferred to filterplates as described below.
The mRNA and cDNA were prepared from whole blood. In brief, home-made 96-well filterplates were placed over collection plates, and 150 μl 5 mM Tris, pH 7.4, was applied. Following centrifugation at 120×g for 1 min at 4° C., 50 μl of blood samples were applied to each well and immediately centrifuged at 120×g for 2 min at 4° C., followed by washing of each well with 300 μl PBS once with centrifugation at 2000×g for 5 min at 4° C. Then, 60 μl stock lysis buffer, containing for example 0.5% N-Lauroylsarcosine, 4×SSC, 10 mM Tris HCl, pH 7.4, 1 mM EDTA, 0.1% IGEPAL CA-630, and 1.791 M guanidine thiocyanate, supplemented with 1% 2-mercaptoethanol (Bio Rad, Hercules, Calif., USA), 0.5 mg/ml proteinase K (Pierce, Rockford, Ill., USA), 0.1 mg/ml salmon sperm DNA (5 Prime Eppendorf/Brinkmann, Westbury, N.Y., USA), 0.1 mg/ml E. coli tRNA (Sigma), a cocktail of 10 mM each of the specific reverse primers shown in Table 1, and standard RNA34 oligonucleotides, were applied to the filterplates, followed by incubation at 37° C. for 10 min. The filterplates were then placed over oligo(dT)-immobilized microplates (GenePlate, RNAture), and centrifuged at 2000×g for 5 min at 4° C. Following overnight storage at 4° C., the microplates were washed with 100 μl plain lysis buffer 3 times, followed by 150 μl of wash buffer (0.5 M NaCl, 10 mM Tris, pH 7.4, 1 mM EDTA) 3 times at 4° C. The cDNA was directly synthesized in each well by adding 30 μl buffer containing 1×RT-buffer, 1.25 mM each of dNTP, 4 units rRNasin, and 80 units of MMLV reverse transcriptase (Promega) (without primers), and incubation at 37° C. for 2 hours. The specific primer-primed cDNA existed in solution, and oligo(dT)-primed cDNA stayed immobilized in the microplate. For TaqMan PCR (FIGS. 1, 3, 4), the resultant 4 μl cDNA solution was directly transferred to 384-well PCR plates, to which 5 μl of TaqMan universal master mix (ABI) and 1 μl oligonucleotide cocktail (15 μM each of forward and reverse primer, and 3-6 μM TaqMan probe) were applied, and PCR was conducted in PRISM 7900HT (ABI), with one cycle of 95° C. for 10 min followed by 45 cycles of 95° C. for 30 sec, 55° C. for 30 sec, and 60° C. for 1 min. For SYBR Green PCR (see FIG. 6), cDNA was diluted 3-4 fold in water, and 4 μl cDNA solution was directly transferred to 384-well PCR plates, to which 5 μl of a master mix (BioRad, Hercules, Calif.) and 1 μl of oligonucleotide cocktail (15 μM each of forward and reverse primer) were applied, and PCR was conducted in PRISM 7900HT (ABI), with one cycle of 95° C. for 10 min followed by 45 cycles of 95° C. for 30 sec and 60° C. for 1 min. Each gene was amplified in separate wells. The Ct was determined by analytical software (SDS, ABI). Although 1×RT buffer was used as a negative control, none of the primer pairs produced non-specific primer-dimers under these experimental conditions. For PUMA in FIG. 8, immobilized cDNA on the oligo(dT)-immobilized microplates was directly amplified in an iCycler (BioRad).
Quantitation of various mRNAs was conducted using the following method. Triplicate aliquots of 50 μl each of heparinized whole blood was applied to 96-well filterplates to trap leukocytes. The filterplates were placed over collection plates, and 150 μl 5 mM Tris, pH 7.4, was applied. […]

In another assay the test system is p21 mRNA. The assay is described as follows: drug-induced p21 mRNA expression in whole blood of leukemia and lymphoma patients. Type of assay: cell-based, human.
For a further assay, the system named is p21 mRNA, U937 cells. The assay is described as follows: etoposide-induced p21 mRNA expression in cultured U937 cells. The assay is classed as cell-based, human. The following applies: 10 μM etoposide, 2 hours at 37° C. (FIG. 1).
The next assay deals with p21 mRNA, Jurkat cells. The assay is described as follows: etoposide-induced p21 mRNA expression in cultured Jurkat cells. The assay is classed as cell-based, human. The following applies: even when 100 μM was used (FIG. 1).
For assay [1], the system named is leukemic non-Hodgkin's malignant lymphoma patient. The assay is described as follows: clinical course of patient 2 (leukemic non-Hodgkin's lymphoma). The assay is classed as in vivo, human. The conditions noted are these: patient 2 with continued thrombocytopenia (FIG. 4).
[2] abbreviates: 20 μM BLM or 100 μM VP-16, 4 hours at 37° C. (FIG. 6).

Protocol for p21 mRNA, Jurkat cells: (§1) Blood was obtained from healthy adults and from two leukemic non-Hodgkin's malignant lymphoma patients. […] For human experiments, blood aliquots were stimulated with various anti-cancer drugs at 37° C. for 2 hours, then both p21 and BAX mRNA were measured. The anti-cancer drugs used in this study were clinical drugs, and the concentration of each drug was adjusted to typical blood levels 3-6 hours after intravenous administration.
(§2) The mRNA and cDNA were prepared from whole blood. In brief, home-made 96-well filterplates were placed over collection plates, and 150 μl 5 mM Tris, pH 7.4, was applied. Following centrifugation at 120×g for 1 min at 4° C., 50 μl of blood samples were applied to each well and immediately centrifuged at 120×g for 2 min at 4° C., followed by washing of each well with 300 μl PBS once with centrifugation at 2000×g for 5 min at 4° C. […] The Ct was determined by analytical software (SDS, ABI).
Protocol for p21 mRNA, U937 cells: as §1, §2

For bleomycin [BLM], in the assay with PUMA mRNA (0-20 μM BLM, 4 hours at 37° C. (FIG. 7)), the “concentration at which significant induction of PUMA was observed” value was “more than 0.1 VM”. The PUMA induction result is reported as “responses were confirmed in all individuals” in the assay with PUMA mRNA (setting [2]) and “induced” in the assay with PUMA mRNA (BLM at concentrations as low as 0.2 μM, 2 hours at 37° C., all cases (FIG. 10C)). For the same compound, the “kinetics of PUMA induction” value in the assay on PUMA mRNA is “increased continuously for 8 hours”. Also, in the assay with p21 mRNA (1 μM BLM, 2 hours at 37° C., 13 leukemia and lymphoma patients vs 27 healthy donors, p=0.000002 (FIG. 15)), the “BLM-induced p21 responses (ΔCt) compared with healthy donors” value is “less than those of healthy control”.
For `COc1cc([C@@H]2c3cc4c(cc3[C@@H](O[C@@H]3O[C@@H]5CO[C@@H](C)O[C@H]5[C@H](O)[C@H]3O)[C@H]3COC(=O)[C@H]23)OCO4)cc(OC)c1O` [VP-16, etoposide], the PUMA induction result is “responses were confirmed in all individuals” with PUMA mRNA (setting [2]) and “induced” in the assay with PUMA mRNA (100 μM VP-16, 2 hours at 37° C. (FIG. 9C)). The “kinetics of PUMA induction” value with PUMA mRNA is “transient induction”. The p21 expression entry in the assay with p21 mRNA, U937 cells was “slight but significant p21 expression”. Further, in the assay with p21 mRNA, Jurkat cells, the “drug sensitivity (p21 mRNA expression)” value was “resistant”. In addition, the “p21 mRNA induction” value in the assay with p21 mRNA (leukemic lymphoma patient 2, 2 hours at 37° C., drug concentrations (FIG. 3)) is listed as “induced”. Also, the platelet count entry in assay [1] is reported as “increased substantially”.

The values above are taken from patent US20090011410A1, “METHOD FOR TAILORING ADMINISTRATION OF DRUGS BY QUANTITATION OF MRNA” (priority 2004, published 2009).
